ChEMBL document CHEMBL1201862, “PubChem BioAssay data set” (2004)
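Briefly, cells in 96-well plates were exposed to five compound concentrations for 48 h, and endpoints were estimated by linear interpolation. The concentration for 50% growth inhibition is given as GI50.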 Activity calls are given as the source filed them. Cut-off read from the data, not from the text of the source: active = GI50 up to about 1.1 µM and inactive = higher.

Assays:
Assay in all cases: inhibition of tumour cell growth, NCI panel, 48 h
SN12C = test system: SN12C
COLO 205 = test system: COLO 205
KM12 = test system: KM12
MOLT-4 = test system: MOLT-4
BT-549 = test system: BT-549
PC-3 = test system: PC-3
MDA-MB-435 = test system: MDA-MB-435
LOX IMVI = test system: LOX IMVI
SF-295 = test system: SF-295
OVCAR-3 = test system: OVCAR-3
NCI-H226 = test system: NCI-H226
M14 = test system: M14
ACHN = test system: ACHN
Hs-578T = test system: Hs-578T
SK-OV-3 = test system: SK-OV-3
U-251 = test system: U-251
HCT-116 = test system: HCT-116
RXF 393 = test system: RXF 393
SK-MEL-5 = test system: SK-MEL-5
MDA-MB-231 = test system: MDA-MB-231
HOP-92 = test system: HOP-92
SW-620 = test system: SW-620
SR = test system: SR
SK-MEL-2 = test system: SK-MEL-2
HCC 2998 = test system: HCC 2998
HT-29 = test system: HT-29
K562 = test system: K562
TK-10 = test system: TK-10
MDA-N = test system: MDA-N
SK-MEL-28 = test system: SK-MEL-28
UACC-62 = test system: UACC-62
OVCAR-5 = test system: OVCAR-5
NCI-H522 = test system: NCI-H522
MCF7 = test system: MCF7
A498 = test system: A498
UACC-257 = test system: UACC-257
OVCAR-8 = test system: OVCAR-8
SF-268 = test system: SF-268
DU-145 = test system: DU-145
SF-539 = test system: SF-539
UO-31 = test system: UO-31
786-0 = test system: 786-0
IGROV-1 = test system: IGROV-1
EKVX = test system: EKVX
A549 = test system: A549
NCI-H460 = test system: NCI-H460
NCI/ADR-RES = test system: NCI/ADR-RES
CCRF-CEM = test system: CCRF-CEM
SNB-75 = test system: SNB-75
T47D = test system: T47D
NCI-H23 = test system: NCI-H23
OVCAR-4 = test system: OVCAR-4
HOP-62 = test system: HOP-62
CAKI-1 = test system: CAKI-1
HCT-15 = test system: HCT-15

With `Cc1c[nH]c(C(=O)O)c1-c1cccn1-c1ccc(Cl)cc1[N+](=O)[O-]` as the compound, how does the GI50 (SN12C) read?
The GI50 was > 100 µM (inactive).

What about the GI50 (COLO 205) of the same compound?
Its GI50 is > 100 µM (inactive).

What about the GI50 (KM12) of the same compound?
The GI50 was 76.6 µM (inactive).

And the GI50 (MOLT-4)?
Its GI50 is 63.1 µM (inactive).

And the GI50 (BT-549)?
Its GI50 is > 100 µM (inactive).

What about the GI50 (PC-3) of the same compound?
Its GI50 is 49.9 µM (inactive).

What about the GI50 (MDA-MB-435) of the same compound?
The GI50 was > 100 µM (inactive).

And the GI50 (LOX IMVI)?
Its GI50 is > 100 µM (inactive).

What about the GI50 (SF-295) of the same compound?
Its GI50 is 73.8 µM (inactive).

And the GI50 (OVCAR-3)?
Its GI50 is 11.8 µM (inactive).

What about the GI50 (NCI-H226) of the same compound?
The GI50 was 92.3 µM (inactive).

And the GI50 (M14)?
The GI50 was > 100 µM (inactive).

What about the GI50 (ACHN) of the same compound?
The GI50 was > 100 µM (inactive).

What about the GI50 (Hs-578T) of the same compound?
Its GI50 is > 100 µM (inactive).

And the GI50 (SK-OV-3)?
Its GI50 is > 100 µM (inactive).

What about the GI50 (U-251) of the same compound?
The GI50 was > 100 µM (inactive).

And the GI50 (HCT-116)?
Its GI50 is > 100 µM (inactive).

What about the GI50 (RXF 393) of the same compound?
Its GI50 is 83 µM (inactive).

And the GI50 (SK-MEL-5)?
The GI50 was > 100 µM (inactive).

What about the GI50 (MDA-MB-231) of the same compound?
The GI50 was > 100 µM (inactive).

And the GI50 (HOP-92)?
The GI50 was 56 µM (inactive).

What about the GI50 (SW-620) of the same compound?
The GI50 was > 100 µM (inactive).

And the GI50 (SR)?
Its GI50 is 99.3 µM (inactive).

What about the GI50 (SK-MEL-2) of the same compound?
The GI50 was > 100 µM (inactive).

What about the GI50 (HCC 2998) of the same compound?
The GI50 was > 100 µM (inactive).

And the GI50 (HT-29)?
Its GI50 is > 100 µM (inactive).

What about the GI50 (K562) of the same compound?
The GI50 was 73.8 µM (inactive).

What about the GI50 (TK-10) of the same compound?
Its GI50 is > 100 µM (inactive).

And the GI50 (MDA-N)?
Its GI50 is > 100 µM (inactive).

And the GI50 (SK-MEL-28)?
The GI50 was > 100 µM (inactive).

And the GI50 (UACC-62)?
Its GI50 is > 100 µM (inactive).

What about the GI50 (OVCAR-5) of the same compound?
Its GI50 is > 100 µM (inactive).

What about the GI50 (NCI-H522) of the same compound?
Its GI50 is 72.8 µM (inactive).

What about the GI50 (MCF7) of the same compound?
Its GI50 is 69.7 µM (inactive).

And the GI50 (A498)?
The GI50 was > 100 µM (inactive).

What about the GI50 (UACC-257) of the same compound?
The GI50 was > 100 µM (inactive).

And the GI50 (OVCAR-8)?
Its GI50 is 61.7 µM (inactive).

What about the GI50 (SF-268) of the same compound?
Its GI50 is > 100 µM (inactive).

And the GI50 (DU-145)?
Its GI50 is > 100 µM (inactive).

And the GI50 (SF-539)?
The GI50 was > 100 µM (inactive).

And the GI50 (UO-31)?
The GI50 was 45.9 µM (inactive).

And the GI50 (786-0)?
Its GI50 is > 100 µM (inactive).

What about the GI50 (IGROV-1) of the same compound?
The GI50 was 36.3 µM (inactive).

What about the GI50 (EKVX) of the same compound?
The GI50 was > 100 µM (inactive).

And the GI50 (A549)?
Its GI50 is 83.4 µM (inactive).

And the GI50 (NCI-H460)?
The GI50 was > 100 µM (inactive).

What about the GI50 (NCI/ADR-RES) of the same compound?
Its GI50 is 72.3 µM (inactive).

And the GI50 (CCRF-CEM)?
Its GI50 is > 100 µM (inactive).

And the GI50 (SNB-75)?
The GI50 was > 100 µM (inactive).

What about the GI50 (T47D) of the same compound?
The GI50 was > 100 µM (inactive).

And the GI50 (NCI-H23)?
Its GI50 is > 100 µM (inactive).

What about the GI50 (OVCAR-4) of the same compound?
Its GI50 is > 100 µM (inactive).

What about the GI50 (HOP-62) of the same compound?
Its GI50 is 63.2 µM (inactive).

What about the GI50 (CAKI-1) of the same compound?
Its GI50 is > 100 µM (inactive).

And the GI50 (HCT-15)?
The GI50 was > 100 µM.
